# Laboratory results reported in patent US5698547A, “Cephalosporin antibiotics” (Microcide Pharmaceuticals, Inc., priority 1995, dated 1997).
# Where a name gives a salt, the structure may show the parent alone.
# Tested on: S. aureus Col (Meth^R) (lac^-)
# Test: MIC by agar dilution, S. aureus Col (Meth^R) (lac^-)
# Assay type: cell-based
# Conditions: Staphylococcus aureus; agar dilution; S. aureus Col (Meth^R) (lac^-); read-out: MIC
# Method: The compounds of the invention were evaluated against several β-lactamresistant bacteria strains by determining the minimum inhibitory concentration (MIC, μg/ml) of each compound with respect to each strain. The MIC, the lowest concentration of antibiotic which inhibits growth of the test organism, was determined by the agar dilution method.
# To determine the MIC for bacterial isolates, the test compound was incorporated in a series of two-fold dilutions into liquified Mueller-Hinton agar. Upon solidification, a number of different bacterial strains were spot inoculated with a replicating device onto the agar surface. […] The procedures used in these studies have been standardized by the National Committee for Clinical Laboratory Standards (NCCLS), as per the NCCLS publication entitled METHODS FOR DILUTION ANTIMICROBIAL SUSCEPTIBILITY TESTS (1991), which is incorporated herein by reference.
# Aliquots of antimicrobial agents were prepared in phosphate buffered saline (PBS) at pH 7.2. Tween 20 or DMSO was used as a solubilizing vehicle as needed. Standard methods of vortexing, sonicating and gentle heat were used to facilitate solubilizing the test agent. Typically, the concentration of the stock solution was 10× that of the highest drug concentration tested. A 1.28 mg/mL stock solution was used with a subsequent highest working concentration of 128 μg/mL. Serial two-fold dilutions were done through ≤0.25 μg/mL. Each drug level was tested in duplicate. Two-fold drug dilutions were done in sterile 50 mL tubes with a final drug volume of 5 mL. Upon the addition of 45 mL of molten agar, a 10-fold dilution resulted. Two, 25 mL. plates were then poured into 15×150 mm square Petri plates with grids and allowed to harden.
# A control plate with a reference drug, either cefotaxime, vancomycin or imipenem, was used as the positive growth control. Stock concentrations of reference antibiotics were prepared and frozen at -80° C. Upon preparation, the control plates were sealed and stored in the refrigerator for up to 1 week prior to use; however, imipenem control plates had to be prepared just prior to use. All test plates were used within 24 hours of preparation.
# Satisfactory results were obtained where the inoculum contained about 10^4 colony forming units (cfu) ±0.5 logs. Starting with pure cultures of the test isolates on agar plates, a few isolated colonies were transferred to a tube of nutrient broth and allowed to grow 4-6 hours at 35°-36° C. to reach log-phase growth. Dropwise addition of the broth culture to PBS was done to match a 0.5 McFarland turbidity standard equal to 10^8 cfu/mL. This was further diluted ten-fold in PBS to reach a working inoculum concentration of 10^7 cfu/mL. When 1 μL of the working inoculum was applied to the agar surface a concentration of about 10^4 cfu per spot was obtained.
# Disposable sterile 1 μL loops were used to inoculate test plates, with each isolate in a designated grid on the agar plate. An alternate method of inoculation involved the use of a replica plater, a device with 48 steel pins allowing the simultaneous inoculation of multiple isolates. After the spots had dried, the plates were incubated at 35°-36° C. for 16-20 hours. Endpoints were assessed as the minimum inhibitory concentration (MIC) of antimicrobial agent.
# The novel agents of this invention are notable for their enhanced activity against S. aureus Col and Enterococci (E. faecium and E. faecalis). The S. aureus Col strain is a high-level PBP2a producer, whereas S. aureus Col 8A, its isogenic partner, lacks PBP2a. […] Thus, the compounds of the present invention are effective against PBP2a-producing bacteria.
row,SMILES,MIC [mg/L]
1,"N=C(N)SCc1ccccc1SC1=C(C(=O)O)N2C(=O)[C@@H](NC(=O)CSCCCI)[C@H]2SC1 [Cmpd 134, (7R)-7-[(3-iodoprop-1-ylthioacetyl)amino]-3-(2-isothiouroniummethylphenylthio)-3-cephem-4-carboxylate, inner salt]",2
2,O=C1CNC(SCc2ccccc2SC2=C(C(=O)O)N3C(=O)[C@@H](NC(=O)Cc4ccccc4)[C@H]3SC2)=N1 [Cmpd 68],8
3,"O=C(Cc1ccccc1)N[C@@H]1C(=O)N2C(C(=O)O)=C(Sc3ccc(C(F)(F)F)cc3)CS[C@H]12 [Cmpd 40, (7R)-7-[(Phenylacetyl)amino]-3-(4-trifluoromethylphenylthio)-3-cephem-4-carboxylic acid]",4
4,"N=C(N)NC(=N)SCc1ccc(SC2=C(C(=O)O)N3C(=O)[C@@H](NC(=O)Cc4ccccc4)[C@H]3SC2)c(I)c1 [Cmpd 60, (7R)-7-[(Phenylacetyl)amino]-3-(4-(N-amidino)isothiouroniummethyl-2-iodophenylthio)-3-cephem-4-carboxylate, inner salt]",0.5
5,"O=C(Cc1ccccc1)N[C@@H]1C(=O)N2C(C(=O)O)=C(Sc3ccc4c(c3)oc3ccccc34)CS[C@H]12 [Cmpd 7, (7R)-7-[(Phenylacetyl)amino]-3-(dibenzofuranyl-3-thio)-3-cephem-4-carboxylic acid]",4
6,"COc1ccc(-n2nccc2SC2=C(C(=O)O)N3C(=O)[C@@H](NC(=O)Cc4ccccc4)[C@H]3SC2)cc1 [Cmpd 114, (7R)-7-[(Phenylacetyl)amino]-3-(1-N-(4-methoxyphenyl)pyrazol-5-ylthio)-3-cephem-4-carboxylic acid]",4
7,"Cn1cc[n+](Cc2ccoc2-c2ccccc2SC2=C(C(=O)[O-])N3C(=O)[C@@H](NC(=O)Cc4ccccc4)[C@H]3SC2)c1 [Cmpd 48, (7R)-7-[(Phenylacetyl)amino]-3-(2-(3-(N-methylimidazoliummethyl)furan-2-yl)phenylthio)-3-cephem-4-carboxylic acid]",4
8,"N#Cc1ccc(-c2ccccc2SC2=C(C(=O)O)N3C(=O)[C@@H](NC(=O)Cc4ccccc4)[C@H]3SC2)cc1 [Cmpd 23, (7R)-7-[(Phenylacetyl)amino]-3-(2-(4-cyanophenyl)phenylthio)-3-cephem-4-carboxylic acid]",2
9,"O=C(Cc1ccccc1)N[C@@H]1C(=O)N2C(C(=O)O)=C(Sc3ccnn3-c3ccccn3)CS[C@H]12 [Cmpd 105, (7R)-7-[(Phenylacetyl)amino]-3-(1-N-(pyridin-2-yl)pyrazol-5-ylthio)-3-cephem-4-carboxylic acid]",4
10,"O=C(Cc1ccccc1)N[C@@H]1C(=O)N2C(C(=O)O)=C(Sc3cccc(Cl)c3Cl)CS[C@H]12 [Cmpd 24, (7R)-7-[(Phenylacetyl)amino]-3-(2,3-dichlorophenylthio)-3-cephem-4-carboxylic acid]",1
11,"N=C(N)SCc1ccccc1SC1=C(C(=O)O)N2C(=O)[C@@H](NC(=O)Cc3ccc(CN)cc3)[C@H]2SC1 [Cmpd 124, (7R)-7-[((4-aminomethylphenyl)acetyl)amino]-3-(2-isothiouroniummethylphenylthio)-3-cephem-4-carboxylate, trifluoroacetic acid salt]",4
12,"CN=C(N)SCc1ccccc1SC1=C(C(=O)O)N2C(=O)[C@@H](NC(=O)Cc3ccccc3)[C@H]2SC1 [Cmpd 76, (7R)-7-[(Phenylacetyl)amino]-3-(2-N-methylisothiouroniummethylphenylthio)-3-cephem-4-carboxylate, inner salt]",2
13,"O=C(Cc1ccccc1)N[C@@H]1C(=O)N2C(C(=O)O)=C(Sc3ccc(CSC4=NCCN4)cc3I)CS[C@H]12 [Cmpd 59, (7R)-7-[(Phenylacetyl)amino]-3-(4-(2-imidazolin-2-ylthiomethyl)-2-iodophenylthio)-3-cephem-4-carboxylic acid]",2
14,"N#CCC(=O)N[C@@H]1C(=O)N2C(C(=O)O)=C(Sc3ccccc3C#N)CS[C@H]12 [Cmpd 52, (7R)-7-[(Cyanoacetyl)amino]-3-(2-cyanophenylthio)-3-cephem-4-carboxylic acid]",4
15,"O=Cc1ccccc1SC1=C(C(=O)O)N2C(=O)[C@@H](NC(=O)Cc3ccccc3)[C@H]2SC1 [Cmpd 50, (7R)-7-[(Phenylacetyl)amino]-3-(2-formylphenylthio)-3-cephem-4-carboxylic acid]",2
16,"Nc1nc(/C(=N/O)C(=O)N[C@@H]2C(=O)N3C(C(=O)O)=C(Sc4ccccc4-c4ccccc4)CS[C@H]23)cs1 [Cmpd 42, (7R)-7-[(Z)-2-(aminothiazol-4-yl)-2-(hydroxyimino)acetamido]-3-(2-biphenylthio)-3-cephem-4-carboxylic acid]",4
17,"N#Cc1ccccc1SC1=C(C(=O)O)N2C(=O)[C@@H](NC(=O)/C(=N\OC3CCCC3)c3csc(N)n3)[C@H]2SC1 [Cmpd 53, (7R)-7-[(Z)-2-(aminothiazol-4-yl)-2-(cyclopentyloxyimino)acetamido]-3-(2-cyanophenylthio)-3-cephem-4-carboxylic acid]",4
18,"O=C(COc1ccc(Cl)cc1)N[C@@H]1C(=O)N2C(C(=O)O)=C(Sc3ccccc3I)CS[C@H]12 [Cmpd 30, (7R)-7-[(p-Chlorophenoxyacetyl)amino]-3-(o-iodophenylthio)-3-cephem-4-carboxylic acid]",0.5
19,"CN(C)C(SCc1ccccc1SC1=C(C(=O)[O-])N2C(=O)[C@@H](NC(=O)Cc3ccccc3)[C@H]2SC1)=[N+](C)C [Cmpd 69, (7R)-7-[(Phenylacetyl)amino]-3-(2-tetramethylisothiouroniummethylphenylthio)-3-cephem-4-carboxylate, inner salt]",4
20,"CSc1ccccc1SC1=C(C(=O)O)N2C(=O)[C@@H](NC(=O)Cc3ccccc3)[C@H]2SC1 [Cmpd 44, (7R)-7-[(Phenylacetyl)amino]-3-(2-methylthiophenylthio)-3-cephem-4-carboxylic acid]",2
21,"O=C(Cc1ccccc1)N[C@@H]1C(=O)N2C(C(=O)O)=C(Sc3ccc(CSc4ncn[nH]4)cc3)CS[C@H]12 [Cmpd 65, (7R)-7-[(Phenylacetyl)amino]-3-(4-(1,2,4-triazol-5-ylthiomethyl)phenylthio)-3-cephem-4-carboxylic acid]",8
22,"NCc1ccccc1CC(=O)N[C@@H]1C(=O)N2C(C(=O)O)=C(Sc3ccnn3-c3ccccc3)CS[C@H]12 [Cmpd 96, (7R)-7-[((2-aminomethylphenyl)acetyl)amino]-3-(1-N-phenylpyrazol-5-ylthio)-3-cephem-4-carboxylic acid]",8
23,"O=C(Cc1cccs1)N[C@@H]1C(=O)N2C(C(=O)O)=C(Sc3ccccc3Br)CS[C@H]12 [Cmpd 20, (7R)-7-[(2-Thienylacetyl)amino]-3-(o-bromophenylthio)-3-cephem-4-carboxylic acid]",0.5
24,"N=C(N)SCc1ccc(SC2=C(C(=O)O)N3C(=O)[C@@H](NC(=O)Cc4ccccc4)[C@H]3SC2)cc1 [Cmpd 63, (7R)-7-[(Phenylacetyl)amino]-3-(4-isothiouroniummethylphenylthio)-3-cephem-4-carboxylate, inner salt]",4
25,"O=C(Cc1ccc(Cl)cc1)N[C@@H]1C(=O)N2C(C(=O)O)=C(Sc3cccnc3-c3ccccc3)CS[C@H]12 [Cmpd 84, (7R)-7-[(4-Chlorophenylacetyl)amino]-3-(2-phenylpyridin-3-ylthio)-3-cephem-4-carboxylic acid]",2
26,"N#Cc1ccc(SC2=C(C(=O)O)N3C(=O)[C@@H](NC(=O)Cc4ccccc4)[C@H]3SC2)c([N+](=O)[O-])c1 [Cmpd 49, (7R)-7-[(Phenylacetyl)amino]-3-(4-cyano-2-nitrophenylthio)-3-cephem-4-carboxylic acid]",4
27,"COc1ccc(CC(=O)N[C@@H]2C(=O)N3C(C(=O)O)=C(Sc4ccccc4I)CS[C@H]23)cc1 [Cmpd 29, (7R)-7-[(p-Methoxyphenylacetyl)amino]-3-(o-iodophenylthio)-3-cephem-4-carboxylic acid]",1
